Test results reported in patent US20220282304A1, “SAME-SAMPLE ANTIBIOTIC SUSCEPTIBILITY TEST AND RELATED COMPOSITIONS, METHODS AND SYSTEMS” (CALIFORNIA INSTITUTE OF TECHNOLOGY, priority 2021, published 2022).

Test system: Escherichia coli isolate A
Test: Same-sample filtration AST, replicate treated and concurrent reference conditions (Example 3), isolate A
Assay type: cell-based
Details: 1 μg/mL ETP, 60 minutes 37° C.
Method: Isolate A was susceptible to ertapenem, while isolate B was resistant. The inoculum was small enough that no detectable difference in the sample's optical density at 600 mm (OD600) was detectable before and after inoculation by an Ultrospec 10 spectrophotometer with an analytical sensitivity of 0.01 absorbance units. After an incubation at 37° C., the media became turbid with an OD600 of 0.5 absorbance units after about 2 hours of incubation.
To begin the AST protocol, 23.75 μL of the above 8 bacteria batch culture dilutions was twice added to and mixed with 1.25 μL of water containing either 20 μg/mL or 0 μg/mL of dissolved ertapenem (ETP) antibiotic. As a result, […] at 1 μg/mL were created, and 8 untreated reference conditions were created (see Table 2 below). The […] were incubated at 37° C. for 60 minutes.
After 60 minutes of incubation, the entire volume of each antibiotic exposure was transferred to an individual cellulose acetate filter unit with a 0.2 μm pore size. […]
50 μL of fresh MHB media was spun through the filters after the first centrifugation (above) to wash away residual extracellular nucleic acids present in the fluid wetting the filters. […] In this experiment, the wash fluid was collected and analyzed to learn more about the protocol, but this washing step is not necessary for determining susceptibility of the isolate. […]

C[C@@H](O)[C@H]1C(=O)N2C(C(=O)O)=C(S[C@@H]3CN[C@H](C(=O)Nc4cccc(C(=O)O)c4)C3)[C@H](C)[C@H]12 [ETP, ertapenem]
susceptibility call (threshold: reference mean + 2 SD of fraction extracellular) (alternative analysis): susceptible
susceptibility call (t-test treated vs untreated percent extracellular) (ddPCR 23S rRNA): susceptible
